Patent US9371320B2, “Heterocyclic compound” (TAKEDA PHARMACEUTICAL COMPANY LIMITED, priority 2012, dated 2016)

Legend:
JAK1 = target: T1, JAK1 (Homo sapiens, UniProt P23458); assay: JAK1 enzyme inhibition test (LANCE method); format: biochemical; conditions: for inhibition at 10 µM: test compound 10 μM, read-out: Inhibitory rate (%) JAK1 10 μM; for inhibition at 1 µM: test compound 1 μM, read-out: Inhibitory rate (%) JAK1 1 μM
T1 construct: purchased Invitrogen
In short: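 Reactions ran 1 h at room temperature in HEPES pH 7.5/MgCl2 buffer, with ATP solution at 150 μM and JAK1 and ULight peptide solutions at 187.5 ng/mL and 300 nM. Reactions were stopped with EDTA, and phosphorylation was read by Eu antibody time-resolved fluorescence at 665 nm. Inhibition was scaled to a no-enzyme control as 100%.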

Tyk2 = target: T2, Tyk2 (Homo sapiens, UniProt P29597); assay: Tyk2 enzyme inhibition test (LANCE method); format: biochemical; conditions: for inhibition at 10 µM: test compound 10 μM, read-out: Inhibitory rate (%) Tyk2 10 μM; for inhibition at 1 µM: test compound 1 μM, read-out: Inhibitory rate (%) Tyk2 1 μM
T2 construct: purchased Invitrogen
T2 sequence (P29597 whole entry): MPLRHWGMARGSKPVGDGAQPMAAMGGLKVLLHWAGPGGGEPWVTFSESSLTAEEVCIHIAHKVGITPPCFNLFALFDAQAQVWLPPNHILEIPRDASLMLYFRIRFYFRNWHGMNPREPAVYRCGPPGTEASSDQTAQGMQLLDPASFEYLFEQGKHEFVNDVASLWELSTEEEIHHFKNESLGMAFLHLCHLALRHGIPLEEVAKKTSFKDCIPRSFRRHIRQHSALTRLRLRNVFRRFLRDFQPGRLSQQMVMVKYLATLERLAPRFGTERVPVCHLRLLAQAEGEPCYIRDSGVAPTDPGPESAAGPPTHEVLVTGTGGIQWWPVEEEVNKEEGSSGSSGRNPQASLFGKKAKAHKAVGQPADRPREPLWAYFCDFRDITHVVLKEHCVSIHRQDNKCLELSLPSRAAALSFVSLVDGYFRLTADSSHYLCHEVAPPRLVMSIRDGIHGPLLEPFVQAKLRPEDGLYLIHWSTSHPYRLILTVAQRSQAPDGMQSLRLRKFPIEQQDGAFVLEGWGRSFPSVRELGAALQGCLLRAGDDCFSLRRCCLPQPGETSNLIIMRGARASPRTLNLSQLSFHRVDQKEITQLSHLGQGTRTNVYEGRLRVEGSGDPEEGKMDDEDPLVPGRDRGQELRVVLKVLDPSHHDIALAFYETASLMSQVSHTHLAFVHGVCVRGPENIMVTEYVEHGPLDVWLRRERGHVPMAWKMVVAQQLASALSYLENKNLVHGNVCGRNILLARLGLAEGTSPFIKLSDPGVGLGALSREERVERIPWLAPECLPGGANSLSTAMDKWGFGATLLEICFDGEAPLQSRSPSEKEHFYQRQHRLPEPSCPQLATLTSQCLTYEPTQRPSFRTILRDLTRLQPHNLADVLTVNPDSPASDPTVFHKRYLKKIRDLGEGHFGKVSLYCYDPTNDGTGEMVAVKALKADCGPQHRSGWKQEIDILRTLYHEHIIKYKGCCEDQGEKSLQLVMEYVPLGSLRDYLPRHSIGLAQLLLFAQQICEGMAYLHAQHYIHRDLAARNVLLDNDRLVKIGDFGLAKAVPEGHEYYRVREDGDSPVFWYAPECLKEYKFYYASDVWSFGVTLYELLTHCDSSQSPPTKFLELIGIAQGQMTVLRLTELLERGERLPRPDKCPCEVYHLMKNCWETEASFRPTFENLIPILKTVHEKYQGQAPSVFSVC
In short: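 LANCE TR-FRET read-out (ex 340/em 665 nm, 100 μs delay) of ULight-JAK1 phosphorylation, with no-enzyme wells as 100% inhibition. Reaction run 1 h at room temperature in pH 7.5 HEPES buffer; enzyme 375 ng/mL, substrate 300 nM and ATP 30 μM are solution concentrations before mixing.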

T1 sequence (P23458 whole entry): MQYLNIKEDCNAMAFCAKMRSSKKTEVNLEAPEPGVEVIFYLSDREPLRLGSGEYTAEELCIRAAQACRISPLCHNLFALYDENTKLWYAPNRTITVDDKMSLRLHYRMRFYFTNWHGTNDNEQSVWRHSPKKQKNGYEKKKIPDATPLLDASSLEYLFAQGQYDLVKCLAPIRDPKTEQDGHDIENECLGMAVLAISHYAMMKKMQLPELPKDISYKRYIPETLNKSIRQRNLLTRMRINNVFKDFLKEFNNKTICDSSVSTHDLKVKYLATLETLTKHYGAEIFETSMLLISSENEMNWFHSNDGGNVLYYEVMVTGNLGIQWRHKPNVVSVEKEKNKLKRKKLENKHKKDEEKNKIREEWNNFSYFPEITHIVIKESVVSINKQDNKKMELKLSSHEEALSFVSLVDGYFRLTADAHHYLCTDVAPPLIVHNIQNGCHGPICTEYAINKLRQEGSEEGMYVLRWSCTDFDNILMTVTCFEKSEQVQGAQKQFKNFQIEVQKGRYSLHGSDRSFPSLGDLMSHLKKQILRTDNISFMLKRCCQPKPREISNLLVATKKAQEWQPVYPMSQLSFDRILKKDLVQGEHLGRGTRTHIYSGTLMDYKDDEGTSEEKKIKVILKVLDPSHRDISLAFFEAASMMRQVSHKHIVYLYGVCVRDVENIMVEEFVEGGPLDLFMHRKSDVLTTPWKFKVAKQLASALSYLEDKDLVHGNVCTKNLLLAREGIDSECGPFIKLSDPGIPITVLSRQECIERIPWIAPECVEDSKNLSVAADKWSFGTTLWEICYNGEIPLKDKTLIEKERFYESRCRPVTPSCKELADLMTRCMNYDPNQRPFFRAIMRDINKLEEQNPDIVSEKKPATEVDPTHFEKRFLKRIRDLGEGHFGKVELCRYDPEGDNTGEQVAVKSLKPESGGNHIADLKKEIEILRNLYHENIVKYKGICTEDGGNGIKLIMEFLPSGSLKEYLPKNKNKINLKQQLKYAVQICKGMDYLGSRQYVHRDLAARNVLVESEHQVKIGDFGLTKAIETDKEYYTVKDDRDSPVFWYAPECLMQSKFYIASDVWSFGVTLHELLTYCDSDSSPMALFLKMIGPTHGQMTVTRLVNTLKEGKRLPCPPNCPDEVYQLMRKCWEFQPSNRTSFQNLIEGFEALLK

Row | SMILES | inhibition at 10 µM (JAK1) [%] | inhibition at 10 µM (Tyk2) [%] | inhibition at 1 µM (JAK1) [%] | inhibition at 1 µM (Tyk2) [%]
1 | NC(=O)c1cc(-c2nn(C3CCCC3)c3c(Cl)c[nH]c(=O)c23)cs1 [Example 296, 4-(7-chloro-1-cyclopentyl-4-oxo-4,5-dihydro-1H-pyrazolo[4,3-c]pyridin-3-yl)thiophene-2-carboxamide] |  |  | 90 | 96
2 | NS(=O)(=O)c1ccc(Nc2nn(C3CCCC3)c3cc[nH]c(=O)c23)cc1 [Example 297, 4-((1-cyclopentyl-4-oxo-4,5-dihydro-1H-pyrazolo[4,3-c]pyridin-3-yl)amino)benzenesulfonamide] |  |  | 98 | 99
3 | NC(=O)c1cc(-c2nn([C@H]3CC[C@@H](N)CC3)c3cc[nH]c(=O)c23)cs1 [Example 298, 4-(1-(cis-4-aminocyclohexyl)-4-oxo-4,5-dihydro-1H-pyrazolo[4,3-c]pyridin-3-yl)thiophene-2-carboxamide] | 81 | 58 |  | 
4 | NC(=O)c1cc(-c2nn([C@H]3CC[C@H](N)CC3)c3cc[nH]c(=O)c23)cs1 [Example 299, 4-(1-(trans-4-aminocyclohexyl)-4-oxo-4,5-dihydro-1H-pyrazolo[4,3-c]pyridin-3-yl)thiophene-2-carboxamide] |  |  | 99 | 99
5 | CC(=O)N1CCC(c2ccc(-c3nn(-c4c(F)cccc4F)c4cc[nH]c(=O)c34)cc2)CC1 [Example 301, 3-(4-(1-acetylpiperidin-4-yl)phenyl)-1-(2,6-difluorophenyl)-1,5-dihydro-4H-pyrazolo[4,3-c]pyridin-4-one] |  |  | 97 | 99
6 | COc1cc(N)cc(F)c1-n1cc(-c2csc(C(N)=O)c2)c2c(=O)[nH]ccc21 [Example 302, 4-(1-(4-amino-2-fluoro-6-methoxyphenyl)-4-oxo-4,5-dihydro-1H-pyrrolo[3,2-c]pyridin-3-yl)thiophene-2-carboxamide] |  |  | 97 | 95
7 | Nc1cc(F)c(-n2nc(-c3ccc(S(N)(=O)=O)cc3)c3c(=O)[nH]ccc32)c(F)c1 [Example 303, 4-(1-(4-amino-2,6-difluorophenyl)-4-oxo-4,5-dihydro-1H-pyrazolo[4,3-c]pyridin-3-yl)benzenesulfonamide] |  |  | 99 | 100

The next lines start with the values.

Row | inhibition at 10 µM (JAK1) [%] | inhibition at 10 µM (Tyk2) [%] | inhibition at 1 µM (JAK1) [%] | inhibition at 1 µM (Tyk2) [%] | SMILES
8 | 0 | 22 |  |  | CNC(=O)Cc1ccc(F)c(-c2nn(-c3c(F)cccc3F)c3cc[nH]c(=O)c23)c1 [Example 293, 2-(3-(1-(2,6-difluorophenyl)-4-oxo-4,5-dihydro-1H-pyrazolo[4,3-c]pyridin-3-yl)-4-fluorophenyl)-N-methylacetamide]
9 |  |  | 35 | 92 | CNC(=O)c1ccc(-c2nn(-c3c(F)cccc3F)c3cc[nH]c(=O)c23)c(F)c1 [Example 294, 4-(1-(2,6-difluorophenyl)-4-oxo-4,5-dihydro-1H-pyrazolo[4,3-c]pyridin-3-yl)-3-fluoro-N-methylbenzamide]
10 | 24 | 80 |  |  | CNC(=O)c1ccc(-c2nn(-c3c(F)cccc3F)c3cc[nH]c(=O)c23)c(Cl)c1 [Example 295, 3-chloro-4-(1-(2,6-difluorophenyl)-4-oxo-4,5-dihydro-1H-pyrazolo[4,3-c]pyridin-3-yl)-N-methylbenzamide]
11 |  |  | 68 | 83 | Nc1ncc(-c2nn(-c3c(F)cccc3F)c3cc[nH]c(=O)c23)cn1 [Example 300, 3-(2-aminopyrimidin-5-yl)-1-(2,6-difluorophenyl)-1,5-dihydro-4H-pyrazolo[4,3-c]pyridin-4-one]
12 |  |  | 97 | 99 | O=C1COCCN1c1ccc(-c2nn(-c3c(F)cccc3F)c3cc[nH]c(=O)c23)cc1 [Example 304, 1-(2,6-difluorophenyl)-3-(4-(3-oxomorpholin-4-yl)phenyl)-1,5-dihydro-4H-pyrazolo[4,3-c]pyridin-4-one]
